Measured values taken from article PMC7802074, “Azanitrile Inhibitors of the SmCB1 Protease Target Are Lethal to Schistosoma mansoni: Structural and Mechanistic Insights into Chemotype Reactivity” (ACS Infectious Diseases, 2020).
Several values for one entry are separate records, joined by “and”; a condition that tells them apart may be missing. Identical values can stand only once. Like-named read-outs stand apart in the source and are kept apart here.

Experiments:
recombinant SmCB1 = recombinant SmCB1 (Schistosoma mansoni, UniProt Q8MNY2, T185A/T300A); assay: SmCB1 kinetic inhibition assay with fluorogenic substrate Cbz-Phe-Arg-AMC; type: biochemical; conditions: substrate Cbz-Phe-Arg-AMC; for SmCB1 inhibition k2nd (second-order rate constant): slow-binding azadipeptide nitriles
Protocol: Inhibition measurements were performed in triplicates in 96-well microplates (100 μL assay volume) at 37 °C. SmCB1 (20–40 pM) was added to a mixture of the fluorogenic substrate Cbz-Phe-Arg-AMC (20 μM) and an inhibitor (0–100 μM) in 0.1 M sodium acetate, pH 5.5, containing 2.5 mM dithiothreitol and 0.1% PEG 6000. The substrate hydrolysis was monitored in an Infinite M1000 microplate reader (Tecan, Männedorf, Switzerland) at excitation and emission wavelengths of 360 and 465 nm, respectively, for up to 15 and 60 min for fast- and slow-binding inhibitors, respectively. […] For slow-binding inhibitors, an observed first-order rate constant kobs was calculated at each inhibitor concentration by fitting the progress curve to the equation P = vst + (vi – vs)(1 – […])/kobs + d, where P is the product formation, vs is the steady-state velocity, t is the reaction time, vi is the initial velocity, and d is the offset. The inhibition constant Ki′ was determined by nonlinear regression using the equation vs/v0 = 1/(1 + [I]/Ki′). The true inhibition constants Ki were then calculated using the equation Ki = Ki′/(1 + [S]/Km), where [S] is the substrate concentration and Km is the Michaelis constant. The apparent second-order rate constant k2nd′ was determined by fitting to the linear equation kobs = k2nd′[I] + koff, where koff is the first-order rate constants for the dissociation of the enzyme–inhibitor complex and the true constant k2nd was calculated by the correction k2nd = k2nd′(1 + [S]/Km). […] In none of the assay systems did the final concentration of DMSO exceed 1.5%.

[1] = tested on: S. mansoni newly transformed schistosomula (NTS); assay: Schistosome phenotypic assay; type: cell-based, Schistosoma mansoni; conditions: for Severity score Day 1 / Severity score Day 3 / Severity score Day 2 / Severity score Day 4: 10 μM inhibitor, scale 0 (no effect) to 4 (severe); for Severity score Day 1: 24 h; for Severity score Day 2: 48 h
Protocol: Newly transformed schistosomula (NTS) of S. mansoni were prepared by mechanically transforming infective larvae (cercariae) as described previously.[70],[71] NTS (200–300 parasites) were incubated in 200 μL of Basch Medium 169 containing 5% FBS, 100 U mL^–1 penicillin, and 100 μg mL^–1 streptomycin at 5% CO2 and 37 °C.[70],[72],[73] Inhibitors were added at the final concentration of 10 μM,[20],[69] and changes in phenotypes were observed every 24 h for up to 4 days. A constrained nomenclature of “descriptors” is used to record the multiple and dynamic changes in movement, shape, and translucence of which the schistosome parasite is capable (Table S3).[70] These descriptors are then converted into an ordinal “severity score” system from 0 (no effect) to 4 (maximum effect), which allows for the relative comparison of compound effects, as described.[74],[75] Images of NTS were captured using a Zeiss Axiovert 40 C inverted microscope (10× objective) and a Zeiss AxioCam MRc digital camera controlled by AxioVision 40 (v. 4.8.1.0) software.

[2] = Table S2, carbadipeptide nitriles, read-out: SmCB1 inhibition Ki
[3] = SmCB1 inhibition Ki, Table S2, carbadipeptide nitriles
[4] = SmCB1 inhibition Ki, kinetic activity assay, pH 5.5, 37 °C

Sequence of recombinant SmCB1 (Q8MNY2 87-340 T185A/T300A): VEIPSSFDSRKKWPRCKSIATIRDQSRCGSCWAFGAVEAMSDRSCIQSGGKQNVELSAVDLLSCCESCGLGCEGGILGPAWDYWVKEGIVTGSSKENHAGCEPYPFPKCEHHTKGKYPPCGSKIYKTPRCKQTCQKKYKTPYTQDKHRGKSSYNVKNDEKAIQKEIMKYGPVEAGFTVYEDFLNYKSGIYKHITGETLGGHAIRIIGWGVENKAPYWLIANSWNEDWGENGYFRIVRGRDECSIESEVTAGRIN

Row | SMILES | Ki (recombinant SmCB1; [2]) | Severity score Day 1 [1] | Severity score Day 3 [1] | Ki (recombinant SmCB1; [4]) | Severity score Day 2 [1] | Severity score Day 4 [1] | other results
1 | CC(C)(C)OC(=O)N[C@@H](Cc1ccccc1)C(=O)NCC#N [Gü809] | > 10 µM |  |  |  |  |  | 
2 | CC(=O)N[C@@H](Cc1ccccc1)C(=O)NCC#N [Gü1134] | > 10 µM |  |  |  |  |  | 
3 | CC(C)C[C@@H](C(=O)NCC#N)N(C)C(=O)c1ccc(-c2noc(-c3cccs3)n2)cc1 [Compound 6c] |  | 0 | 0 | > 100 µM |  |  | Descriptors Day 4 (phenotypic changes) ([1]; 10 µM inhibitor): R; Ki (recombinant SmCB1; [3]): > 10 µM
4 | CC(C)(C)OC(=O)N[C@@H](CC1CC1)C(=O)NCC#N [Gü1228] | > 10 µM |  |  |  |  |  | 
5 | COc1ccc(C[C@H](NC(=O)OCc2ccccc2)C(=O)N(C)N(C)C#N)cc1 [Compound 13a] |  | 4 and 4/4 | 4 | 0.0806 ± 0.0071 µM | 4 and 4/4 | 4 | Descriptors Day 1 (phenotypic changes) ([1]; 10 µM inhibitor): Deg; Descriptors Day 2 (phenotypic changes) ([1]; 10 µM inhibitor): Deg
6 | CC(C)(C)OC(=O)N[C@@H](Cc1cccc(F)c1)C(=O)NCC#N [Gü1239] | > 10 µM |  |  |  |  |  | 
7 | Cc1nc(-c2ccc(CNC(=O)N[C@@H](CC(C)C)C(=O)N(C)N(C)C#N)cc2)no1 [Compound 16a] |  | 0 | 3 | 0.03 ± 0.0041 µM | 2 | 4 | Descriptors Day 2 (phenotypic changes) ([1]; 10 µM inhibitor): R, Unc; Descriptors Day 3 (phenotypic changes) ([1]; 10 µM inhibitor): R, Unc, Dark; Descriptors Day 4 (phenotypic changes) ([1]; 10 µM inhibitor): Deg; SmCB1 inhibition k2nd (second-order rate constant) (recombinant SmCB1): 9.2 ± 0.8 10^3 M^-1 s^-1
8 | N#CCNC(=O)[C@H](Cc1ccccc1)NC(=O)c1ccccc1 [Gü1135] | > 10 µM |  |  |  |  |  | 
9 | CC(C)C[C@H](NC(=O)Nc1ccc(-c2noc(-c3cccs3)n2)cc1)C(=O)N(C)N(C)C#N [Compound 4a] |  | 3 | 4 | 0.0367 ± 0.0026 µM | 4 | 4 | Descriptors Day 1 (phenotypic changes) ([1]; 10 µM inhibitor): R, Unc, Dark; Descriptors Day 2 (phenotypic changes) ([1]; 10 µM inhibitor): Deg; SmCB1 inhibition k2nd (second-order rate constant) (recombinant SmCB1): 13.9 ± 2.9 10^3 M^-1 s^-1
10 | CC(C)(C)OC(=O)N[C@@H](Cc1c[nH]c2ccccc12)C(=O)NCC#N [Gü916] | > 10 µM |  |  |  |  |  | 
11 | CCC[C@H](NC(=O)OC(C)(C)C)C(=O)NCC#N [Gü1131] | > 10 µM |  |  |  |  |  | 
12 | CN(C#N)N(C)C(=O)CNC(=O)OCc1ccccc1 [Compound 1a] |  | 0 and 0/0 | 0 |  | 0 and 0/0 | 0 | phenotype severity against NTS ([1]; 10 μM, up to 4 days): ineffective
13 | CC(C)C[C@H](NC(=O)NCc1ccc(-c2noc(-c3cccs3)n2)cc1)C(=O)N(C)N(C)C#N [Compound 17a] |  | 0 and 0/0 | 0 | 0.0583 ± 0.0028 µM | 0 and 0/0 | 0 | SmCB1 inhibition k2nd (second-order rate constant) (recombinant SmCB1): 3.1 ± 0.6 10^3 M^-1 s^-1
14 | CC(C)C[C@H](NC(=O)Nc1ccc(-c2noc(-c3cccs3)n2)cc1)C(=O)NCC#N [Compound 4c] |  | 2 | 0 | 6.62 ± 0.91 µM | 1 | 2 | Descriptors Day 1 (phenotypic changes) ([1]; 10 µM inhibitor): R, S; Descriptors Day 2 (phenotypic changes) ([1]; 10 µM inhibitor): R; Descriptors Day 4 (phenotypic changes) ([1]; 10 µM inhibitor): R, S; Ki (recombinant SmCB1; [3]): 6.62 ± 0.91 µM
15 | CCC(C)C(NC(=O)OC(C)(C)C)C(=O)NCC#N (stereo not drawn) [Gü932] | > 10 µM |  |  |  |  |  | 
16 | CC(C)C[C@H](NC(=O)OC(C)(C)C)C(=O)NCC#N [Gü914] | > 10 µM |  |  |  |  |  | 
17 | CC(C)(C)OC(=O)N[C@H](C(=O)NCC#N)c1ccccc1 [Gü1130] | > 10 µM |  |  |  |  |  | 
18 | CCC(C)C(NC(=O)OCc1ccccc1)C(=O)N(C)N(C)C#N (stereo not drawn) [Compound 12a] |  | 4 and 4/4 | 4 | 0.0717 ± 0.0044 µM | 4 and 4/4 | 4 | Descriptors Day 1 (phenotypic changes) ([1]; 10 µM inhibitor): Deg
19 | CC(C)(C)OC(=O)N[C@@H](Cc1ccc(F)cc1)C(=O)NCC#N [Gü1237] | > 10 µM |  |  |  |  |  | 
20 | C[C@@H](C#N)NC(=O)[C@H](Cc1ccccc1)NC(=O)OCc1ccccc1 [Compound 8c] |  | 0 | 0 |  | 0 | 0 | Ki (recombinant SmCB1; [3]): > 10 µM
21 | CC(C)(C)OC(=O)N[C@@H](Cc1ccsc1)C(=O)NCC#N [Gü1232] | > 10 µM |  |  |  |  |  | 
22 | N#CCNC(=O)CNC(=O)OCc1ccccc1 [Compound 1c] |  | 0 | 0 | > 100 µM | 0 | 0 | Ki (recombinant SmCB1; [3]): > 10 µM
